Each structure is given as a SMILES string.

The assay has as its target T1, menin/MLL (terbium chelate-labeled menin, FITC-MBM1 peptide) (Homo sapiens, UniProt O00255, T541A).
T1 construct: Menin (a.a 1-610-6xhis tag, 2.3 mg/mL in 20 mM Hepes)
T1 sequence (O00255 with tags, fused parts or gaps T541A): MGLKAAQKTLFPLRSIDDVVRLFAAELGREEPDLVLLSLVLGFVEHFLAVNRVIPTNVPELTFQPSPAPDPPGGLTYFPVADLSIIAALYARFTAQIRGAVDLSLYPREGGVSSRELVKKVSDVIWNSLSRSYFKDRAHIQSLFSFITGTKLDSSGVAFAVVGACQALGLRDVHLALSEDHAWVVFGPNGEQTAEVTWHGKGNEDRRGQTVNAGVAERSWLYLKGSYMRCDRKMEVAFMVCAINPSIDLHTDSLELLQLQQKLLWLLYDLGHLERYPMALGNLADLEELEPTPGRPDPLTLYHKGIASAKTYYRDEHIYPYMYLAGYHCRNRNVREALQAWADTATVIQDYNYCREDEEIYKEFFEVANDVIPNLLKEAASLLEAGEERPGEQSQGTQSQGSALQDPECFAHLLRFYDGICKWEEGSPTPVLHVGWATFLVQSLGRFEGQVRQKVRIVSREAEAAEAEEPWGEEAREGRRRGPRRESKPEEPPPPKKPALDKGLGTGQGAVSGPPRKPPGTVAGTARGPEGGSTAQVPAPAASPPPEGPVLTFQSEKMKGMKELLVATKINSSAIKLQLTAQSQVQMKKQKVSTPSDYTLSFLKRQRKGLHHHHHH
Put plainly: Menin/MLL homogenous time-resolved fluorescence (HTRF) assay. It is filed as binding. The note with it: 30 min incubation. The method, boiled down: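 Terbium-labeled menin (a.a. 1-610, His-tagged; […]) pre-incubated 30 min with compound, then 75 nM FITC-MBM1 peptide added for 15 min at ambient temperature in Tris pH 7.5 buffer, 0.5% DMSO. HTRF 520/490 nm ratio read; IC50 from 11-point four-fold titrations, typically from 10 μM.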
The molecule `COCCN(C)CCCC(C(C)C)N1CC[C@@H](Cc2cn(-c3ccc(F)cc3C(=O)N(C)C(C)C)c3cncc(C)c23)C1` (some centres unmarked) [Compound 1] had an IC50 of 0.033 nM. This lies in the picomolar range.
The same measure for `Cc1cncc2c1c(CC1CN([C@@H](C(C)C)[C@H]3C[C@@H](N4CCC(S(C)(=O)=O)CC4)C3)C1)cn2-c1ccc(F)cc1C(=O)N(C)C(C)C` [Compound 33a]: 0.07 nM; for `CC(C)C([C@H]1C[C@@H](N(C)C)C1)N1CC(Cc2cn(-c3ccc(F)cc3C(=O)N(C)C(C)C)c3cncc(Cl)c23)C1` (some centres unmarked) [Compound 41]: 0.202 nM.
For `CCN(C(=O)c1cc(F)ccc1-n1cc(CC2CN(C(C(C)C)[C@H]3C[C@@H](N4C[C@H]5CN(C(C)=O)C[C@@H]5C4)C3)C2)c2c(C)cncc21)C(C)C` (mixture of isomers) [Compound 38a] the value was 0.036 nM; for `Cc1cncc2c1c(C[C@@H]1CCN(CC3CCOCC3)C1)cn2-c1ccc(F)cc1C(=O)N(C[C@H](C)O)C(C)C` (single isomer, unassigned) [Compound 365b], 0.081 nM; for `COCC(=O)N1CCC(CN2CC(Cc3cn(-c4ccc(F)cc4C(=O)N(C)C(C)C)c4cncc(C)c34)C2)CC1` [Compound 66], 0.037 nM.
For `CC(=O)N1CCC(CN2CC(Cc3cn(-c4ccc(F)cc4C(=O)N(C)C(C)C)c4cncc(C)c34)C2)CC1` [Compound 63] the value was 0.176 nM; for `CCN(C(=O)c1cc(F)ccc1-n1cc(CC2CN(C(C(C)C)[C@H]3C[C@@H](N4CCN(S(C)(=O)=O)CC4)C3)C2)c2c(C)cncc21)C(C)C` (some centres unmarked) [Compound 37a], 0.126 nM.
`CC(=O)N1CCN([C@H]2C[C@@H]([C@@H](C(C)C)N3CC(Cc4cn(-c5ccc(F)cc5C(=O)N(C)C(C)C)c5cncc(C)c45)C3)C2)CC1` (single isomer, unassigned) [Compound 32a] had an IC50 of 0.062 nM. Against the preceding molecule, the IC50 is about 2-fold lower.
The same measure for `Cc1cncc2c1c(CC1CN(CC3CCOCC3)C1)cn2-c1ccc(F)cc1C(=O)N(C)C(C)C` [Compound 61]: 0.132 nM; for `Cc1cncc2c1c(C[C@H]1CCN(C[C@H]3CC[C@H](NS(C)(=O)=O)CC3)C1)cn2-c1ccc(F)cc1C(=O)N(C)C(C)C` (single isomer, unassigned) [Compound 69]: 0.049 nM; for `Cc1cncc2c1c(C[C@H]1CCN(C(C)C3CCOCC3)C1)cn2-c1ccc(F)cc1C(=O)N(C)C(C)C` (mixture of isomers) [Compound 49]: 0.048 nM.
For `Cc1cncc2c1c(C[C@H]1CCN(CC3CCOCC3)C1)cn2-c1ccc(F)cc1C(=O)N(C)C(C)C` (single isomer, unassigned) [Compound 43] the value was 0.027 nM; for `CC(=O)N1C[C@@H]2CN([C@H]3C[C@@H]([C@@H](C(C)C)N4CC(Cc5cn(-c6ccc(F)cc6C(=O)N(C)C(C)C)c6cncc(Cl)c56)C4)C3)C[C@H]2C1` (single isomer, unassigned) [Compound 39a], 0.034 nM; for `CNC(=O)[C@H]1CC[C@H](CN2CCC(Cc3cn(-c4ccc(F)cc4C(=O)N(C)C(C)C)c4cncc(C)c34)C2)CC1` (single isomer, unassigned) [Compound 71], 0.202 nM.
For `CNC(=O)[C@H]1CC[C@H](CN2CCC(Cc3cn(-c4ccc(F)cc4C(=O)N(C)C(C)C)c4cncc(C)c34)C2)CC1` (single isomer, unassigned) [Compound 70] the value was 0.114 nM; for `COCC(=O)N1CCC(CN2CCC(Cc3cn(-c4ccc(F)cc4C(=O)N(C)C(C)C)c4cncc(C)c34)C2)CC1` (single isomer, unassigned) [Compound 59], 0.054 nM.
The molecule `Cc1cncc2c1c(CC1CCN(CC3CCN(C(=O)CC#N)CC3)C1)cn2-c1ccc(F)cc1C(=O)N(C)C(C)C` (single isomer, unassigned) [Compound 60] had an IC50 of under 0.0095 nM.
As to `CC(=O)N1CCC(CN2CC[C@@H](Cc3cn(-c4ccc(F)cc4C(=O)N(C)C(C)C)c4cncc(C)c34)C2)CC1` (single isomer, unassigned) [Compound 50], the half-inhibitory concentration (IC50) was 0.079 nM. That is a picomolar value.
For `Cc1cncc2c1c(C[C@@H]1CCN(CC3CCOCC3)C1)cn2-c1ccc(F)cc1C(=O)N(C)C(C)C` (single isomer, unassigned) [Compound 42] the value was 0.03 nM; for `Cc1cncc2c1c(C[C@H]1CCN(CC(C)C)C1)cn2-c1ccc(F)cc1C(=O)N(C)C(C)C` (single isomer, unassigned) [Compound 45], 0.054 nM; for `Cc1cncc2c1c(C[C@H]1CCN([C@@H](C)C3CCOCC3)C1)cn2-c1ccc(F)cc1C(=O)N(C)C(C)C` (single isomer, unassigned) [Compound 49b], 0.06 nM.
Regarding `Cc1cncc2c1c(C[C@@H]1CCN(CC3CCOCC3)C1)cn2-c1ccc(F)cc1C(=O)N(CCO)C(C)C` [Compound 357], the IC50 worked out at 0.035 nM.
The same measure for `CC(=O)N1CCC(CN2CCC(Cc3cn(-c4ccc(F)cc4C(=O)N(C)C(C)C)c4cncc(C)c34)CC2)CC1` [Compound 58]: 0.135 nM.
The same measure for `Cc1cncc2c1c(CC1CN(CC3CCN(C(=O)CC#N)CC3)C1)cn2-c1ccc(F)cc1C(=O)N(C)C(C)C` [Compound 67]: about 0.043 nM; for `Cc1cncc2c1c(C[C@@H]1CCN(CC(C)C)C1)cn2-c1ccc(F)cc1C(=O)N(C)C(C)C` (single isomer, unassigned) [Compound 44]: 0.06 nM.

The record behind these values is patent US20230250096A1, “SUBSTITUTED PHENYL-1H-PYRROLO[2,3-c] PYRIDINE DERIVATIVES” (Janssen Pharmaceutica NV, priority 2021, published 2023).
